From PubChem BioAssay AID1221 (NMMLSC, 2008)
Calls of active or inactive are those of the source.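 Rule for the calls: active = summed score of at least 50 from binding left at 10 µM, EC50 band and curve drop size; inactive = the rest.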

target: Estrogen receptor beta (Homo sapiens) (UniProt Q92731); experiment: ERbeta binders displacing fluorescent estradiol, dose response, cell-based, Cos7 ERbeta-GFP, E2-Alexa633, flow cytometry (AID 1221); settings: E2-Alexa633 competitive binding
Sequence (Q92731 whole entry, looked up): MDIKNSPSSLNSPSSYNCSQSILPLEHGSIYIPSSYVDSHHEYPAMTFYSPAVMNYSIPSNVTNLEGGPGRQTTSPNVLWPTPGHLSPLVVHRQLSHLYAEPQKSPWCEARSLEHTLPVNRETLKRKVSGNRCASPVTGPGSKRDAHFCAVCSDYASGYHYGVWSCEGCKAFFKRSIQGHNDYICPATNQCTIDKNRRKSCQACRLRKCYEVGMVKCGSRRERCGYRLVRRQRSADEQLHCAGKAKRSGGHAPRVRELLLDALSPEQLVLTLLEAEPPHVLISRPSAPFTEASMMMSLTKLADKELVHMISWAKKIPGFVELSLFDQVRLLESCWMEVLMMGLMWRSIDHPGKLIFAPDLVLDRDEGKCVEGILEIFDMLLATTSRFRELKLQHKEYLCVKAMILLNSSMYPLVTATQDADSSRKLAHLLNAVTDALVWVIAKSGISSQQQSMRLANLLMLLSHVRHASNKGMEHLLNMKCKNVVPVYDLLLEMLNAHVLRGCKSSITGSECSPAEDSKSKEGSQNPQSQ

SMILES | EC50
Oc1ccc(-c2nc3ccc4ccccc4c3c3c2CCC3)cc1O | > 10 µM (inactive)

same assay, conditions: E2-Alexa633 competitive binding, at 10 µM (top of the series)

SMILES | percent ligand binding remaining
COc1ccc(/C=N/NC(=O)c2nc(-c3ccccc3)cc(-c3ccccc3)n2)cc1O | inactive
C[C@H]1CCC[C@@H](O)CCC/C=C/c2cc(O)cc(O)c2C(=O)O1 | inactive
Cc1cc(C(=O)Nc2sc3c(c2C#N)CCC3)no1 | inactive
CCn1c(=NC(=O)c2ccc(N3C(=O)CCC3=O)cc2)sc2c(OC)ccc(OC)c21 | inactive
COc1cccc(NS(=O)(=O)c2ccc3c(c2)C2C=CCC2C(c2ccc(C(=O)O)cc2)N3)c1 (stereo not drawn) | inactive
COc1ccc(NC(=O)C(c2ccccc2)N(C)C(=O)c2ccc(=O)[nH]c2)cc1 (stereo not drawn) | inactive
COc1ccc(C(=O)N/N=C(\C)c2ccc3c(c2)C2C=CCC2C(c2ccccc2)N3)cc1 (stereo not drawn) | 32.7%
Cc1cc(C)cc(OCC(=O)Nc2ccc(N3CCCC3)cc2)c1 | inactive
Cc1nn(-c2ccccc2)c(/N=C/c2ccc(O)cc2)c1-c1ccccc1 | inactive
CC(=O)Nc1ccc(OC(=O)CC2SC(=O)NC2=O)cc1 (stereo not drawn) | inactive
CC(=O)c1ccc2c(c1)C1C=CCC1C(c1ccc(S(=O)(=O)N3CCOCC3)cc1)N2 (stereo not drawn) | inactive
Cc1ccc(-n2c(=O)c(C#N)cc3c(=O)n4cccc(C)c4nc32)cc1 | inactive
Brc1cc2c(cc1C1Nc3ccccc3C3C=CCC31)OCO2 (stereo not drawn) | inactive
COc1nc(-c2ccc(Cl)cc2)ccc1-c1noc(-c2ccco2)n1 | inactive
C/C=C(/C(=C/C)c1ccc(O)cc1)c1ccc(O)cc1 | 45.1%
CCNC(=O)c1ccc2c(c1)C1C3CCC(C3)C1C(c1ccccc1)N2 (stereo not drawn) | inactive

SMILES | percent ligand binding remaining
O=C1NC(c2ccc(Br)cc2)Nc2sc3c(c21)CCC3 (stereo not drawn) | inactive
C[C@]12CC[C@@H]3c4ccc(O)cc4[C@@H](O)C[C@H]3[C@@H]1CC[C@@H]2O | inactive
O=C1/C(=C\c2ccco2)SC(=S)N1c1ccc(O)cc1 | inactive
COc1cccc(C2Nc3c(F)cc(Br)cc3C3C=CCC32)c1OC (stereo not drawn) | inactive
Oc1ccc(-c2nc(-c3ccc(O)c(O)c3)cs2)cc1 | inactive
Cc1cc(C)c2c(c1)NC(c1cc3c(cc1Br)OCO3)C1CC=CC21 (stereo not drawn) | inactive
O=C(O)c1ccc2c(c1)C1C(Cl)C(Sc3ccccc3[N+](=O)[O-])CC1C(c1cccc([N+](=O)[O-])c1)N2 (stereo not drawn) | inactive
Cn1ccnc1SCC(=O)Nc1ccc2nc(SCC(=O)NC3CC3)sc2c1 | inactive
Cc1cc([N+](=O)[O-])c2c(c1C)C1C=CCC1C(c1ccccn1)N2 (stereo not drawn) | inactive
O=S(=O)(NCCc1csc(-c2cccnc2)n1)c1ccc(Cl)s1 | inactive
O=C(Cc1cccs1)Nc1ccc(S(=O)(=O)Nc2ncccn2)cc1 | inactive
Cc1nnc(SCC(=O)NC(=O)NCc2ccco2)n1Cc1ccccc1 | inactive
CCCCCCNC(=O)c1cc(-c2ccco2)nc2ccccc12 | inactive
N=C1C(c2nc3ccccc3[nH]2)=C(O)CN1c1ccc(CC(=O)O)cc1 | inactive
CCc1nc2sc3ccccc3c(=O)c2c(=O)n1Cc1ccco1 | inactive
CCC(=O)Oc1ccc(/C(CC)=C(\CC)c2ccc(OC(=O)CC)cc2)cc1 | 32.1%
